Reference: patent US8952037B2, “Heteroaryloxycarbocyclyl compounds as PDE10 inhibitors” (Amgen Inc., priority 2010, dated 2015)

Target: PDE10
Test: MPDE10A7 enzyme inhibition, IMAP TR-FRET assay
Type: biochemical
Conditions: read-out: PDE10 IC50
Description: MPDE10A7 Enzyme Activity and Inhibition
Enzyme Activity. An IMAP TR-FRET assay was used to analyze the enzyme activity (Molecular Devices Corp., Sunnyvale Calif.). 5 μL, of serial diluted PDE10A (BPS Bioscience, San Diego, Calif.) or tissue homogenate was incubated with equal volumes of diluted fluorescein labeled cAMP or cGMP for 60 min in 384-well polystyrene assay plates (Corning, Corning, N.Y.) at room temperature. After incubation, the reaction was stopped by adding 60 μL, of diluted binding reagents and was incubated for 3 hours to overnight at room temperature. The plates were read on an Envision (Perkin Elmer, Waltham, Mass.) for time resolved fluorescence resonance energy transfer. The data were analyzed with GraphPad Prism (La Jolla, Calif.).
Enzyme Inhibition. To check the inhibition profile, 5 μL, of serial diluted compounds were incubated with 5 μL, of diluted PDE10 enzyme (BPS Bioscience, San Diego, Calif.) or tissue homogenate in a 384-well polystyrene assay plate (Corning, Corning, N.Y.) for 30 min at room temperature. After incubation, 10 μL, of diluted fluorescein labeled cAMP or cGMP substrate were added and incubated for 60 min at room temperature. The reaction was stopped by adding 60 μL of diluted binding reagents and plates were read on an Envision (Perkin Elmer, Waltham, Mass.) for time resolved fluorescence resonance energy transfer. The data were analyzed with GraphPad Prism (La Jolla, Calif.).

In order of falling IC50:
1. CC(=O)N1CCC(c2cccnc2OC2CC(NS(=O)(=O)c3ccc(C)cc3)C2)CC1 [Example 114, N-((1S,3S)-3-((3-(1-acetylpiperidin-4-yl)pyridin-2-yl)oxy)cyclobutyl)-4-methylbenzenesulfonamide]  12.4 µM
2. FC(F)(F)c1ccc(NC2CC(Oc3ncncc3C3CCOCC3)C2)nc1 [Example 116, N-((1R,3R)-3-((5-(tetrahydro-2H-pyran-4-yl)pyrimidin-4-yl)oxy)cyclobutyl)-5-(trifluoromethyl)pyridin-2-amine]  0.959 µM
3. CC(=O)N1CCC(c2cccnc2OC2CC(NS(=O)(=O)c3ccc(C)cc3)C2)CC1 [Example 115, N-((1R,3R)-3-((3-(1-acetylpiperidin-4-yl)pyridin-2-yl)oxy)cyclobutyl)-4-methylbenzenesulfonamide]  0.916 µM
4. N#Cc1ccc(N[C@H]2C[C@H](Oc3ncccc3C3CCOCC3)C2)nc1 [Example 107, 6-(((1R,3R)-3-((3-(tetrahydro-2H-pyran-4-yl)pyridin-2-yl)oxy)cyclobutyl)amino)nicotinonitrile]  0.865 µM
5. N#Cc1ccc(N[C@H]2C[C@@H](Oc3ncccc3C3CCOCC3)C2)nc1 [Example 106, 6-(((1S,3S)-3-((3-(tetrahydro-2H-pyran-4-yl)pyridin-2-yl)oxy)cyclobutyl)amino)nicotinonitrile]  0.59 µM
6. FC(F)(F)c1ccc(N[C@H]2C[C@H](Oc3ncccc3C3CCOCC3)C2)nc1 [Example 108, N-((1R,3R)-3-((3-(tetrahydro-2H-pyran-4-yl)pyridin-2-yl)oxy)cyclobutyl)-5-(trifluoromethyl)pyridin-2-amine]  0.436 µM
7. FC(F)(F)c1ccc(NC2CC(Oc3ncncc3C3CCOCC3)C2)nc1 [Example 117, N-((1S,3S)-3-((5-(tetrahydro-2H-pyran-4-yl)pyrimidin-4-yl)oxy)cyclobutyl)-5-(trifluoromethyl)pyridin-2-amine]  0.321 µM
8. FC(F)(F)c1ccc(N[C@H]2C[C@@H](Oc3ncccc3C3CCOCC3)C2)nc1 [Example 109, N-((1S,3S)-3-((3-(tetrahydro-2H-pyran-4-yl)pyridin-2-yl)oxy)cyclobutyl)-5-(trifluoromethyl)pyridin-2-amine]  0.106 µM
9. Clc1ccc(N[C@H]2C[C@H](Oc3ncccc3C3CCOCC3)C2)nc1 [Example 111, 5-chloro-N-((1R,3R)-3-((3-(tetrahydro-2H-pyran-4-yl)pyridin-2-yl)oxy)cyclobutyl)pyridin-2-amine]  0.0837 µM
10. CN1CCC(c2nccnc2O[C@H]2C[C@@H](Nc3nc4ccccc4s3)C2)CC1 [Example 74, N-((1S,3S)-3-((3-(1-methylpiperidin-4-yl)pyrazin-2-yl)oxy)cyclobutyl)benzo[d]thiazol-2-amine]  0.0498 µM
11. Clc1ccc(N[C@H]2C[C@@H](Oc3ncccc3C3CCOCC3)C2)nc1 [Example 110, 5-chloro-N-((1S,3S)-3-((3-(tetrahydro-2H-pyran-4-yl)pyridin-2-yl)oxy)cyclobutyl)pyridin-2-amine]  0.0262 µM
12. O=C1CCN(c2nccnc2OC2CC(Nc3nc4ccccc4s3)C2)CC1 [Example 98, 1-(3-((1S,3S)-3-(benzo[d]thiazol-2-ylamino)cyclobutoxy)pyrazin-2-yl)piperidin-4-one]  0.0211 µM
13. FC1(F)CCN(c2nccnc2OC2CC(Nc3nc4ccccc4s3)C2)CC1 [Example 99, N-((1S,3S)-3-((3-(4,4-difluoropiperidin-1-yl)pyrazin-2-yl)oxy)cyclobutyl)benzo[d]thiazol-2-amine]  0.0177 µM
14. CC(O)C1CCN(c2nccnc2OC2CC(Nc3nc4ccccc4s3)C2)CC1 [Example 102, 1-(1-(3-((1S,3S)-3-(benzo[d]thiazol-2-ylamino)cyclobutoxy)pyrazin-2-yl)piperidin-4-yl)ethanol]  0.0108 µM
15. O=C(CO)N1CCC(c2nccnc2OC2CC(Nc3nc4ccccc4s3)C2)CC1 [Example 73, 1-(4-(3-((1S,3S)-3-(benzo[d]thiazol-2-ylamino)cyclobutoxy)pyrazin-2-yl)piperidin-1-yl)-2-hydroxyethanone]  0.00481 µM
16. F[C@H]1CCN(c2nccnc2OC2CC(Nc3nc4ccccc4s3)C2)C1 (stereo partly drawn) [Example 97, N-((1S,3S)-3-((3-(3-fluoropyrrolidin-1-yl)pyrazin-2-yl)oxy)cyclobutyl)benzo[d]thiazol-2-amine]  0.00335 µM
17. Fc1ccc(C2CCOCC2)c(OC2CC(Nc3nc4ccccc4s3)C2)n1 [Example 105, N-((1S,3S)-3-((6-fluoro-3-(tetrahydro-2H-pyran-4-yl)pyridin-2-yl)oxy)cyclobutyl)benzo[d]thiazol-2-amine]  0.000758 µM
18. TRANS-BENZOTHIAZOL-2-YL-{3-[5-FLUORO-3-(TETRAHYDRO-PYRAN-4-YL)-PYRIDIN-2-YL]-CYCLOBUTYL}-AMINE [Example 5B]  0.0001 µM

Same assay, conditions: separated enantiomers; absolute stereochemistry not determined, value can be for either enantiomer of the pair; read-out: IC50

In order of falling IC50:
1. OC[C@H]1CCCN(c2nccnc2OC2CC(Nc3nc4ccccc4s3)C2)C1 (stereo partly drawn) [Example 91, ((S)-1-(3-((1S,3R)-3-(benzo[d]thiazol-2-ylamino)cyclobutoxy)pyrazin-2-yl)piperidin-3-yl)methanol]  0.026 µM
2. C[C@H]1CCN(c2nccnc2OC2CC(Nc3nc4ccccc4s3)C2)C1 (stereo partly drawn) [Example 94, N-((1R,3S)-3-((3-((S)-3-methylpyrrolidin-1-yl)pyrazin-2-yl)oxy)cyclobutyl)benzo[d]thiazol-2-amine]  0.00802 µM
3. N#C[C@H]1CCN(c2nccnc2OC2CC(Nc3nc4ccccc4s3)C2)C1 (stereo partly drawn) [Example 96, (S)-1-(3-((1S,3R)-3-(benzo[d]thiazol-2-ylamino)cyclobutoxy)pyrazin-2-yl)pyrrolidine-3-carbonitrile]  0.00527 µM
4. C[C@H]1CCN(c2nccnc2OC2CC(Nc3nc4ccccc4s3)C2)C1 (stereo partly drawn) [Example 93, N-((1S,3S)-3-((3-((R)-3-methylpyrrolidin-1-yl)pyrazin-2-yl)oxy)cyclobutyl)benzo[d]thiazol-2-amine]  0.00324 µM
5. OC[C@@H]1CCCN(c2nccnc2OC2CC(Nc3nc4ccccc4s3)C2)C1 (stereo partly drawn) [Example 92, ((R)-1-(3-((1S,3S)-3-(benzo[d]thiazol-2-ylamino)cyclobutoxy)pyrazin-2-yl)piperidin-3-yl)methanol]  0.00281 µM
6. N#C[C@@H]1CCN(c2nccnc2OC2CC(Nc3nc4ccccc4s3)C2)C1 (stereo partly drawn) [Example 95, (R)-1-(3-((1S,3S)-3-(benzo[d]thiazol-2-ylamino)cyclobutoxy)pyrazin-2-yl)pyrrolidine-3-carbonitrile]  0.000728 µM
